Data as given in patent US8425925B2, “Pesticidal tag” (priority 2007, dated 2013).
Like-named read-outs stand apart in the source and are kept apart here.

Assays:
[1] = test system: pyrethroid-resistant (PY-Resistant) horn fly (Haematobia irritans irritans) strain; assay type: in vivo
Description: (§1) A comparison of ivermectin formulations is made to determine their toxicity to horn fly (Haematobia irritans irritans) strains. Three formulations are tested: ivermectin alone, ivermectin formulated with epoxidized soybean oil (ESO), and ivermectin formulated with piperonyl butoxide (PBO). Both pyrethroid-resistant (PY-Resistant) and pyrethroid-susceptible (PY-Susceptible) horn fly strains are tested. […] See D C Sheppard & N C Hinkle, “A field procedure using disposable materials to evaluate horn fly insecticide resistance,” J. Agric. Entomol. 4:87-89 (1987).
(§2) Table 1 presents the contact toxicity results in units of μg/cm^2, computed using Log-Probit Analysis. See, e.g., V. K. Borooah, Logit and Probit (2002) (Sage Publications, Thousand Oaks, Calif., USA).
(§3) Further tests, similar to those of the Ivermectin tests described above, were performed using Abamectin compositions.

[2] = test system: pyrethroid-susceptible (PY-Susceptible) horn fly (Haematobia irritans irritans) strain; assay type: in vivo
Description: as §1, §2, §3

[3] = 4-hour exposure, Log-Probit Analysis
[4] = PY-Susceptible, 4-hour exposure, Log-Probit Analysis

Row | Substance | Lethal Concentrations (cell spanning LC50 and LC90) ([1]; 2 hour contact) | Lethal Concentrations LC50 ([1]; 4 hour contact) [microgram/sq. cm] | Lethal Concentrations LC90 ([1]; 4 hour contact) | Lethal Concentrations LC50 ([1]; 8 hour contact) [microgram/sq. cm] | Lethal Concentrations LC90 ([1]; 8 hour contact) [microgram/sq. cm] | PY-Susceptible versus PY-Resitant RR50 (resistance ratio) ([2]; 8 hour contact, LC50 of PY-susceptible divided by LC50 of PY-resistant horn flies) | PY-Susceptible versus PY-Resitant RR90 (resistance ratio) ([2]; 8 hour contact, LC90 of PY-susceptible divided by LC90 of PY-resistant horn flies) | Lethal Concentrations (cell spanning LC50 and LC90) ([2]; PY-Susceptible, 2 hour contact) | Lethal Concentrations (cell spanning LC50 and LC90) ([2]; PY-Susceptible, 4 hour contact) | Lethal Concentrations LC50 ([2]; PY-Susceptible, 8 hour contact) [microgram/sq. cm] | Lethal Concentrations LC90 ([2]; PY-Susceptible, 8 hour contact) [microgram/sq. cm] | Lethal Concentration LC50 [1, 3] [μg/cm^2] | Lethal Concentration LC90 [1, 3] [μg/cm^2] | Lethal Concentration LC50 [2, 4] [μg/cm^2] | Lethal Concentration LC90 [2, 4] [μg/cm^2]
1 | Abamectin | no mortality | 138.5 | 1,089 microgram/sq. cm | 1.19 | 7.60 | 31.64 | 23.05 | no mortality | no mortality | 37.65 | 175.16 |  |  |  | 
2 | Ivermectin |  |  |  |  |  |  |  |  |  |  |  | 93.8 | 478.0 | 165.6 | 418.3
